Data set [1] has as its system cardiac cells. To be noted: cited from earlier work; for effects on impulse formation, conduction velocity and refractory period: cardiac cells.
Data set [2] has as its system guinea pig ileum. Description: In vitro anticholinergic activity in the isolated guinea pig ileum (field stimulation). It is filed as cell-based, male Hartley guinea pigs. To be noted: for inhibition at 4 µg/mL: Cavia porcellus, read-out: Anticholinergic Inhibition of Guinea Pig Ileum. On the procedure:
The following examples describe the in vitro evaluation of anticholinergic activity in the isolated guinea pig ileum. Fasted, male Hartley guinea pigs (300-400 g) were killed by a blow to the head. […] One end of the ileal strip was impaled onto a platinum wire electrode; and the other end was tied to a stationary glass rod. Basal tension was set at 0.1-0.3 g and peak developed tension in response to field stimulation (100-150 V, 10 msec pulse duration, 0.2 Hz) was measured with a tension transducer.

Data set [3] relates to Harris dog (ventricular arrhythmias). Put plainly: Antiarrhythmic activity by coronary ligation in the Harris dog model. Type of data set: in vivo, adult mongrel dogs. To be noted: for minimal effective dose: Canis lupus familiaris, 5 min, read-out: Antiarrhythmic ED in Harris Dog (effective dose required to sustain normal sinus rhythm). An excerpt:
The following examples describe the pharmacological evaluation of the compounds made in accordance with the present invention. In particular, these examples describe the evaluation of antiarrhythmic activity by coronary ligation in the well known Harris dog model. Ventricular arrhythmias were induced in adult mongrel dogs (10-15 kg) of either sex by two-state ligation of the left anterior descending coronary artery. […] The test compound in saline was infused intravenously at a cumulative rate of 0.3 mg/kg/min (base) until normal sinus rhythm or toxicity occurred. Normal sinus rhythm was defined as 90-100% normal complexes over a 5 min period.

In data set [4] the test system is patients. Particulars: cited from earlier work.
The subject of data set [5] is vagal stimulation of the heart and peripheral parasympathetic stimulation. Particulars: cited from earlier work.
Where [6] appears, read: at 4 mg/L, field stimulation 100-150 V, 10 msec, 0.2 Hz.
[7] abbreviates: IV infusion in saline, cumulative rate 0.3 mg/kg/min (base), day after two-stage ligation of left anterior descending coronary artery, normal sinus rhythm = 90-100% normal complexes over 5 min.
Setting [8] is: patients, management of arrhythmias.

Like-named read-outs stand apart in the source and are kept apart here.

Usually inhibition stands for how much of the control response was suppressed. On to `C=C[C@H]1C[N@@]2CC[C@H]1C[C@@H]2[C@@H](O)c1ccnc2ccc(OC)cc12` (stereo in doubt) [Quinidine, 6-methoxy-α-(5'-vinyl-2-quinuclidinyl)-4-quindinemethanol], for which the “effects on impulse formation, conduction velocity and refractory period” value in data set [1] was “depress impulse formation, slow conduction velocity, and increase the duration of the refractory period of cardiac cells”. Moreover, the inhibition at 4 µg/mL in data set [2] (setting [6]) worked out at 62%. Further, the minimal effective dose in data set [3] (setting [7]) is 10.1 mg/kg. The adverse side-effects entry in data set [4] (human, in vivo) is “cardiotoxicity, diarrhea, nausea, vomiting, fever, hypertension and depression of myocardial contractility”. For the same compound, the anticholinergic action entry in data set [5] is on record as “indirect anticholinergic actions”.

For the compound `Oc1c(CN2CCCC2)cc(Nc2ncnc3ccccc23)cc1CN1CCCC1` [Changrolin, 4-[3',5'-bis[N-pyrolidinylmethyl]-4'-hydroxyanilino]-quinazoline], the “antiarrhythmic effectiveness of known agent” value in data set [1] (background statement) is listed as “effective antiarrhythmic agent”. Further, the inhibition at 4 µg/mL in data set [2] (setting [6]) worked out at 43%. Moreover, the minimal effective dose in data set [3] (setting [7]) is 10.3 mg/kg. Also, the adverse side-effects result in data set [4] (setting [8]) is “skin discoloration in some patients”. Also, the anticholinergic action result in data set [5] is “substantial anticholinergic activity”.

Regarding `CC(C)N(CCC(C(N)=O)(c1ccccc1)c1ccccn1)C(C)C` (stereo not drawn) [Disopyramide, α[2-(diisopropylamino)-ethyl]α-phenol-2-pyridineacetamide], the “effects on impulse formation, conduction velocity and refractory period” value in data set [1] was “depress impulse formation, slow conduction velocity, and increase the duration of the refractory period of cardiac cells”. In addition, in data set [2], the inhibition at 4 µg/mL came to 81%. For the same compound, in data set [3] (iv), the minimal effective dose is 6.8 mg/kg. Further, the adverse side-effects entry in data set [4] (setting [8]) was “dryness of the mouth, blurred vision, constipation, and urinary retention, and depression of myocardial contractility”. The anticholinergic action entry in data set [5] is recorded as “indirect anticholinergic actions”.

For `Nc1cc(CN2CCCC2)c(O)c(CN2CCCC2)c1` [Example I, 3,5-bis(N-pyrrolidinylmethyl)-4-hydroxyaniline], the inhibition at 4 µg/mL in data set [2] (setting [6]) came to 3%. Also, in data set [3] (setting [7]), the “Antiarrhythmic ED in Harris Dog (effective dose required to sustain normal sinus rhythm)” value (from here on “Antiarrhythmic ED in Harris Dog”) was “inactive”.

For the compound `Oc1ccc(Nc2ncnc3ccccc23)cc1` [Example II, 4-(4'-hydroxyanilino)-quinazoline], the inhibition at 4 µg/mL in data set [2] (setting [6]) worked out at 13%. Also, the “Antiarrhythmic ED in Harris Dog” value in data set [3] (setting [7]) was “inactive”.

As for `Oc1ccc(Nc2nncc3ccccc23)cc1` [Example III, 1-(4'-hydroxyanilino)phthalazine], the inhibition at 4 µg/mL in data set [2] (setting [6]) is 23%. Further, the “Antiarrhythmic ED in Harris Dog” value in data set [3] (setting [7]) is “inactive”.

Take `Oc1c(CN2CCCC2)cc(Nc2nncc3ccccc23)cc1CN1CCCC1` [Example IV, 1[3',5'-bis[N-pyrrolidinylmethyl]-4'-hydroxyanilino]-phthalazine]: the inhibition at 4 µg/mL in data set [2] (setting [6]) came out at 83%. In data set [3] (setting [7]), the minimal effective dose is 1.5 mg/kg.

With `Oc1c(CN2CCCC2)cc(Nc2nnc(Cl)c3ccccc23)cc1CN1CCCC1` [Example V, 1-N-[3',5'-bis(N-pyrrolidinylmethyl)-4'-hydroxyanilino]-4-chlorophthalazine], the inhibition at 4 µg/mL in data set [2] (setting [6]) is 76%. In data set [3] (setting [7]), the minimal effective dose was 2.5 mg/kg.

Turning to `Oc1c(CN2CCCC2)cc(Nc2ccc(Cl)nn2)cc1CN1CCCC1` [Example X, 3-N-[3',5'-bis(N-pyrrolidinylmethyl)-4'-hydroxyanilino]-6-chloropyridazine], in data set [2] (setting [6]), the inhibition at 4 µg/mL stood at 40%. The minimal effective dose in data set [3] (setting [7]) was 10.5 mg/kg.

Consider `Oc1c(CN2CCCC2)cc(Nc2ncccn2)cc1CN1CCCC1` [Example XI, 2-N-[3',5'-bis(pyrrolidinylmethyl)-4'-hydroxyanilino]-pyrimidine], for which, in data set [2] (setting [6]), the inhibition at 4 µg/mL worked out at 6%. The “Antiarrhythmic ED in Harris Dog” value in data set [3] (setting [7]) was “low activity”.

For the compound `Cc1cc(Nc2cc(CN3CCCC3)c(O)c(CN3CCCC3)c2)c2ccccc2n1` [Example XIV, 2-methyl-4-[3',5'-bis(N-pyrrolidinylmethyl)]-4'-hydroxyanilinoquinoline], the minimal effective dose in data set [3] (setting [7]) came to 9.5 mg/kg.

Consider `Oc1c(CN2CCCC2)cc(Nc2ccnc3cc(Cl)ccc23)cc1CN1CCCC1` [Example XV, 4-[3',5'-bis(N-pyrrolidinylmethyl)-4'-hydroxyanilino]-7-chloroquinoline], for which the inhibition at 4 µg/mL in data set [2] (setting [6]) worked out at 27%. Further, the “Antiarrhythmic ED in Harris Dog” value in data set [3] (setting [7]) was “low activity”.

For `Oc1c(CN2CCCC2)cc(Nc2ccnc3ccccc23)cc1CN1CCCC1` [Example XVI, 4-[3',5'-bis(N-pyrrolidinylmethyl)-4'-hydroxyanilino]-quinoline], the inhibition at 4 µg/mL in data set [2] (setting [6]) was found to be 19%. Also, the “Antiarrhythmic ED in Harris Dog” value in data set [3] (setting [7]) is “low activity”.

As to `Oc1c(CN2CCCC2)cc(Nc2ccc3ccccc3n2)cc1CN1CCCC1` [Example XVII, 2-[3',5'-bis(N-pyrrolidinylmethyl)-4'-hydroxyanilino]-quinoline], in data set [2] (setting [6]), the inhibition at 4 µg/mL came out at 50%. For the same compound, the minimal effective dose in data set [3] (setting [7]) was 6 mg/kg.

For the compound `CN(C)Cc1cc(Nc2nncc3ccccc23)cc(CN(C)C)c1O` [IX], in data set [2] (setting [6]), the inhibition at 4 µg/mL amounted to 14%. In addition, the minimal effective dose in data set [3] (setting [7]) came to 14 mg/kg.

In the case of `Oc1ccc(Nc2nnc(Cl)c3ccccc23)cc1CN1CCCC1` [VI, 1-N-[3'-N-pyrrolidinylmethyl-4'-hydroxyanilino]-4-chlorophthalazine], in data set [2] (setting [6]), the inhibition at 4 µg/mL came to 65%. Also, the minimal effective dose in data set [3] (setting [7]) amounted to 17 mg/kg.

With `COc1nnc(Nc2cc(CN3CCCC3)c(O)c(CN3CCCC3)c2)c2ccccc12` [VII, 1-N-[3',5'-bis(pyrrolidinylmethyl)-4'-hydroxyanilino]-4-methoxyphthalazine], the inhibition at 4 µg/mL in data set [2] (setting [6]) was found to be 84%. Further, the “Antiarrhythmic ED in Harris Dog” value in data set [3] (setting [7]) is “low activity”.

In the case of `Oc1c(CN2CCCC2)cc(Nc2nccc3ccccc23)cc1CN1CCCC1` [VIII, 1-N-[3',5'-bis(pyrrolidinylmethyl)-4'-hydroxyanilino]-isoquinoline], the “Anticholinergic Inhibition of Guinea Pig Ileum” value in data set [2] (setting [6]) is given as “active”. For the same compound, the minimal effective dose in data set [3] (setting [7]) amounted to 1.1 mg/kg.

Turning to `COc1cc2c(Nc3cc(CN4CCCC4)c(O)c(CN4CCCC4)c3)ncnc2c(OC)c1OC` [XII, 4-[3',5'-bis(pyrrolidinylmethyl)-4'-hydroxyanilino]-6,7,8-trimethoxyquinazoline], the inhibition at 4 µg/mL in data set [2] (setting [6]) is 14%.

Regarding `Oc1c(CN2CCCC2)cc(Nc2ccnc3cc(C(F)(F)F)ccc23)cc1CN1CCCC1` [XIII, 4-[3',5'-bis(N-pyrrolidinylmethyl)-4'-hydroxyanilino]-7-trifluoromethylquinoline], the inhibition at 4 µg/mL in data set [2] (setting [6]) is 36%. For the same compound, the minimal effective dose in data set [3] (setting [7]) came to 3 mg/kg.

Take `Oc1c(CN2CCCC2)cc(CNc2nnc(Cl)c3ccccc23)cc1CN1CCCC1` [XIX, 1-N-[3',5'-bis(N-pyrrolidinylmethyl)-4'-hydroxybenzylamino]-4-chlorophthalazine]: the inhibition at 4 µg/mL in data set [2] (setting [6]) stood at 78%. In addition, the minimal effective dose in data set [3] (setting [7]) was determined as 4.5 mg/kg.

As for `Oc1ccc(Nc2ccc3ccccc3n2)cc1CN1CCCC1` [XVIII, 2-[3'-(N-pyrrolidinylmethyl)-4'-hydroxyanilino]-quinoline], the inhibition at 4 µg/mL in data set [2] (setting [6]) is 72%. The minimal effective dose in data set [3] (setting [7]) came out at 11 mg/kg.

Take `Clc1nnc(Nc2cc(CN3CCCC3)cc(CN3CCCC3)c2)c2ccccc12` [XXI]: in data set [2] (setting [6]), the inhibition at 4 µg/mL amounted to 93%. Also, the minimal effective dose in data set [3] (setting [7]) was 3 mg/kg.

In the case of `Oc1c(CN2CCCC2)cc(Nc2ccncc2)cc1CN1CCCC1` [XX], the inhibition at 4 µg/mL in data set [2] (setting [6]) was determined as 5%. In data set [3] (setting [7]), the minimal effective dose turned out to be 8 mg/kg.
